Reference: patent publication US11697646B2, “Triazole N-linked carbamoyl cyclohexyl acids as LPA antagonists” (BRISTOL-MYERS SQUIBB COMPANY, priority 2017, dated 2023)

target: T1, human LPA1 (Homo sapiens, UniProt Q92633); test: LPA1 functional antagonist assay (calcium flux); type: cell-based; conditions: CHO cells overexpressing human LPA1; calcium flux induced by 10 nM LPA; read-out: hLPA1 IC50
T1 construct: expressed in transfected cells; host or cells: Chinese hamster ovary (CHO) cells
Protocol: The effectiveness of compounds of the present invention as LPA1 inhibitors can be determined in an LPA1 functional antagonist assay as follows:
The cells were then equilibrated to room temperature for 30 minutes before the assay. […] IC50 values were determined by fitting data to a 4-parameter logistic equation (GraphPad Prism, San Diego Calif.).

T1 sequence (Q92633 whole entry): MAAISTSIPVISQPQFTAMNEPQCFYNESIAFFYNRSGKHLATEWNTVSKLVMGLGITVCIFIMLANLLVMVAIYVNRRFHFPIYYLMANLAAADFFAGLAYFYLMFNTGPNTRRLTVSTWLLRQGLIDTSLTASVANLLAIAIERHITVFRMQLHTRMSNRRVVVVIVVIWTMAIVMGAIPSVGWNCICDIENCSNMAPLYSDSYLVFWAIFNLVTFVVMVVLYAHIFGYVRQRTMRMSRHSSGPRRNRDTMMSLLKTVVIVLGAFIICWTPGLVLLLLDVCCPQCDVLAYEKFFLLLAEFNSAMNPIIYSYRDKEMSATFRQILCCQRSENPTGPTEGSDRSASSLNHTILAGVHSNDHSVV

Row | Compound | IC50 [nM]
1 | CCCC1(COC(=O)NCc2c(-c3ccc(O[C@H]4CCC[C@H](C(=O)O)C4)c(C)n3)nnn2C)CC1 [Example 60, (1S,3S)-3-((2-methyl-6-(1-methyl-5-(((((1-propylcyclopropyl)methoxy)carbonyl)amino)methyl)-1H-1,2,3-triazol-4-yl)pyridin-3-yl)oxy)cyclohexane-1-carboxylic acid] | 12
2 | Cc1ccc(OC(=O)NCc2c(-c3ccc(O[C@H]4CCC[C@H](C(=O)O)C4)c(C)n3)nnn2C)cc1 [Example 62, (1S,3S)-3-((2-methyl-6-(1-methyl-5-((((p-tolyloxy)carbonyl)amino)methyl)-1H-1,2,3-triazol-4-yl)pyridin-3-yl)oxy)cyclohexane-1-carboxylic acid] | 148
3 | COc1ccc(OC(=O)NCc2c(-c3ccc(O[C@H]4CCC[C@H](C(=O)O)C4)c(C)n3)nnn2C)cc1 [Example 63, (1S,3S)-3-((6-(5-((((4-methoxyphenoxy)carbonyl)amino)methyl)-1-methyl-1H-1,2,3-triazol-4-yl)-2-methylpyridin-3-yl)oxy)cyclo-hexane-1-carboxylic acid] | 792
4 | Cc1nc(-c2nnn(C)c2NC(=O)OC(C)(C)C)ccc1O[C@H]1CCC[C@H](C(=O)O)C1 [Example 64, (1S,3S)-3-((6-(5-((tert-butoxycarbonyl)amino)-1-methyl-1H-1,2,3-triazol-4-yl)-2-methylpyridin-3-yl)oxy)cyclohexane-1-carboxylicacid] | 54
5 | Cc1nc(-c2nnn(C)c2NC(=O)OCCC(C)(C)C)ccc1O[C@H]1CCC[C@H](C(=O)O)C1 [Example 65, (1S,3S)-3-((6-(5-(((3,3-dimethyl-butoxy)carbonyl)amino)-1-methyl-1H-1,2,3-triazol-4-yl)-2-methyl-pyridin-3-yl)oxy)cyclohexane-1-carboxylic acid] | 75

Further lines, results first:

Row | IC50 [nM] | Compound
6 | 68 | Cc1nc(-c2nnn(C)c2NC(=O)OC2CCCC2)ccc1O[C@H]1CCC[C@H](C(=O)O)C1 [Example 66, (1S,3S)-3-((6-(5-(((cyclopentyloxy)carbonyl)amino)-1-methyl-1H-1,2,3-triazol-4-yl)-2-methylpyridin-3-yl)oxy)cyclohexane-1-carboxylic acid]
7 | 72 | Cc1nc(-c2nnn(C)c2NC(=O)OCC(C)(C)C)ccc1O[C@H]1CCC[C@H](C(=O)O)C1 [Example 67, (1S,3S)-3-((2-methyl-6-(1-methyl-5-(((neopentyloxy)carbonyl)amino)-1H-1,2,3-triazol-4-yl)pyridin-3-yl)oxy)cyclohexane-1-carboxylic acid]
8 | 89 | CCCOC(=O)Nc1c(-c2ccc(O[C@H]3CCC[C@H](C(=O)O)C3)c(C)n2)nnn1C [Example 68, (1S,3S)-3-((2-methyl-6-(1-methyl-5-((propoxycarbonyl)amino)-1H-1,2,3-triazol-4-yl)pyridin-3-yl)oxy)cyclohexane-1-carboxylic acid]
9 | 129 | Cc1nc(-c2nnn(C)c2NC(=O)OC(C)C)ccc1O[C@H]1CCC[C@H](C(=O)O)C1 [Example 70, (1S,3S)-3-((6-(5-((isopropoxycarbonyl)amino)-1-methyl-1H-1,2,3-triazol-4-yl)-2-methylpyridin-3-yl)oxy)cyclohexane-1-carboxylic acid]
10 | 6 | CCCCCOC(=O)Nc1c(-c2ccc(O[C@H]3CCC[C@H](C(=O)O)C3)c(C)n2)nnn1C [Example 71, (1S,3S)-3-((2-methyl-6-(1-methyl-5-(((pentyloxy)carbonyl)amino)-1H-1,2,3-triazol-4-yl)pyridin-3-yl)oxy)cyclohexane-1-carboxylic acid]
11 | 26 | Cc1nc(-c2nnn(C)c2NC(=O)O[C@H](C)c2ccccc2)ccc1O[C@H]1CCC[C@H](C(=O)O)C1 [Example 72, (1S,3S)-3-((2-methyl-6-(1-methyl-5-((((R)-1-phenylethoxy)carbonyl)amino)-1H-1,2,3-triazol-4-yl)pyridin-3-yl)oxy)cyclohexane-1-carboxylic acid]
